Test results from patent US8263406B2, “Enriched or purified population of motor neurons and its preparation from a population of embryonic stem cells” (Cornell Research Foundation, Inc., priority 2003, dated 2012).

Tested on: hES cells
Assay: Induction of motor neurons from hES cell-derived embryoid bodies, quantified by immunocytochemistry
Format: cell-based, human
Conditions: H1 hES-derived EBs, RA 10 uM
Description: A modified version of the protocol described in Wichterle et al., “Directed Differentiation of Embryonic Stem Cells into Motor Neurons,” Cell 110:385-397 (2002), which is hereby incorporated by reference in its entirety, was used for induction and differentiation of motor neurons from hES cells (FIG. 1A). For caudalization and specification to motor neurons, 90% confluent hES cell cultures were dissociated to form embryoid bodies (EB) in suspension dishes (Ultra low cluster 6 well plates, […], Mass.). Fresh RA was added every day and fresh medium along with SHH replaced every 72 hrs. After 6-8 days, differentiation of motor neurons was induced by plating the spheres formed onto poly-ornithin/fibronectin coated plates in DMEM/F12 supplemented with N2 (Gibco), GDNF (20 ng/ml), BDNF (20 ng/ml), or neurotrophin 4 (NT4) (20 ng/ml), CNTF (20 ng/ml), B27 (1X) and 2% FBS. After 7-14 days, cultures were either fixed for immunocytochemistry or used for physiology.
Cells were stained at different stages of culture for the following: Tra 1-81 (Mouse IgG, 1:200), SSEA-4 (supernatant, mouse IgG, 1:50, DSHB), βIII-tubulin (mouse IgG; 1:400, Covance), Islet1 (supernatant, mouse IgG, 1:50, Developmental Studies Hybridoma Bank from the University of Iowa (DSHB)), Hb9 (supernatant, mouse IgG, 1:50, DSH), ChAT (Rabbit IgG, 1:200, Chemicon), desmin (Rabbit IgG, 1:200, Sigma), and GFP (mouse IgG, 1:100). […]
To determine if hES cells had the capacity to respond to the caudalizing effects of RA and the ventralizing effects of SHH to generate MNs (Wichterle et al., “Directed Differentiation of Embryonic Stem Cells into Motor Neurons,” Cell 110:385-397 (2002), which is hereby incorporated by reference in its entirety), hES cells were raised to 90% confluency before inducing them to form EBs in suspension cultures. […] After a week in a differentiated condition, the cells were fixed and the percentage of βIII-tubulin expressing neurons was determined. […]

## CC1=C(/C=C/C(C)=C/C=C/C(C)=C/C(=O)O)C(C)(C)CCC1 [RA+/SHH−, all-trans retinoic acid]
8-9 days in suspension, one week differentiation with FBS/B27/BDNF/GDNF/CNTF, of total population
  percentage of neurons (βIII-tubulin expressing) generated from the differentiated EBs: around 30%
SHH 200 nM where present, FIG. 2E
  percentage of βIII-tubulin expressing neurons that expressed islet-1/ChAT: 3%-10%
SHH 200 nM where present, FIG. 2F
  percentage of βIII-tubulin expressing neurons that expressed Hb9: 3%-6%
